{"source": "patent US20020156023A1", "about": "“Lometrexol combination therapy” (Tularik Inc., priority 2000, published 2002)", "key": {"[1]": {"conditions": "cited from earlier work"}, "[2]": {"conditions": "cited from earlier work", "remark": "listed apart in the source"}, "[3]": {"test": "Storage stability of drug product / reconstituted solution", "assay_type": "physicochemical", "conditions": "reconstituted with 0.9% sodium chloride to approximately 10 mg/mL; vials contain no preservative", "method": "Lometrexol sodium for injection is supplied for the study as a lyophilised off-white crystalline solid in single-use vials containing either 50 mg or 200 mg of lometrexol sodium. Vials are stored at room temperature and protected from light. Lometrexol sodium is reconstituted with 0.9% sodium chloride for injection to a concentration of approximately 10 mg/mL. […] Lometrexol sodium is not known to be a vesicant. Lometrexol sodium is administered on Day 1 of every 21-day cycle as a rapid (i.e., 30 to 60 seconds) intravenous bolus immediately prior to the dose of carboplatin. At each dose level shown in Table 1, the appropriate dose of lometrexol sodium is based on the patient's actual calculated body surface area (BSA) at the beginning of each cycle. Note: If the patient's BSA is >2.0 m^2 the dose is calculated using a maximum BSA of 2.0 m^2.\nDoxorubicin HCl is available commercially available from several manufacturers in liquid or lyophilised form. The lyophilised powder is stable for 2 years when stored at room temperature and away from direct light. The commercial solution formulations must be stored under refrigeration. […] At each dose level shown in Table 2, the appropriate dose of doxorubicin is based on the patient's actual calculated body surface area (BSA) at the beginning of each 21-day cycle. […]"}, "[4]": {"tested_on": "ATP concentration in A549 cells", "test": "Cellular ATP by luminescent method CellTiter Glo in A549 cells", "assay_type": "cell-based", "conditions": "24 hours incubation with lometrexol, FIG. 5, average of triplicate measurements", "method": "A549 cells were propagated in 75 cm^2 flasks in RPMI 1640 medium with 10% fetal bovine serum, 1% penicillin/streptomycin, and 1% glutamine. To initiate the experiment, cells were plated into 96-well plates at 3000 and 10,000 cells/well with the top and bottom rows containing media only as a negative control. The cells were incubated at 37° C. for 15 hours to allow the cells to adhere. After 15 hours, freshly prepared solutions of lometrexol at the desired dose were added to the media in varying concentrations. Each plate also contained wells that contained medium only and no added compound. The cells were then incubated for 24 hours and the amount of ATP was determined by a luminescent method, CellTiter Glo™ (Promega, Madison, Wis.). Concurrently, the cell number was determined in duplicate rows so that the relative ATP concentration per number of cells could be determined. As depicted in FIG. 5 (average of triplicate measurements), the ATP concentration per million cells was decreased in cells treated with lometrexol at concentrations similar to those where the EGFR phosphorylation was effected and at concentrations similar to those which potentiate kinase inhibitors."}, "MDA-MB-231 cells": {"tested_on": "MDA-MB-231 cells", "test": "MTT cell proliferation assay, kinase inhibitor plus lometrexol, MDA-MB-231 cells", "assay_type": "cell-based", "conditions": "showing only mild growth inhibition by EGF", "method": "A549 and MDA-MB-231 cells were obtained from the ATCC. Cells were propagated in 75 cm^2 flasks in RPMI 1640 medium with 10% fetal bovine serum, 1% penicillin/streptomycin, and 1% glutamine. To initiate the experiment, cells were plated into 96-well plates at 3000 cells/well with the top and bottom rows containing media only as a negative control. The cells were incubated at 37° C. for 15 hours to allow the cells to adhere. After 15 hours, freshly prepared solutions of lometrexol and the appropriate kinase inhibitor (AG1478 or indirubin-3′-monoxime) at the desired dose were added to the media in varying concentrations in a 5×8 matrix of concentrations. Each plate also contained wells that contained medium only and no added compound. The cells were then incubated for 48 hours with the compounds. The relative cell number was determined using the cell proliferation assay reagent MTT. This reagent is converted by mitochondrial dehydrogenases to a colored formazan product that is then quantified by spectrophotometric analysis. […] The relative effect of the compounds was determined by the percentage of the untreated control cells. […]"}, "phosphorylated EGFR": {"tested_on": "phosphorylated EGFR", "test": "EGFR phosphorylation in stimulated A549 cells (immunoprecipitation, western blot, densitometry)", "assay_type": "cell-based", "conditions": "24 hours, then 10% fetal bovine serum + 50 ng/ml EGF for 3 hours, FIG. 4", "method": "The A549 lung adenocarcinoma cell line was grown under normal cell culture conditions. The cells were plated in 100 mm^2 dishes in RPMI 1640 culture medium containing 1% penicillin/streptomycin, 1% glutamine and 10% fetal bovine serum. The cells were allowed to grow to >95% confluence. Thereafter, the cells were rinsed twice with phosphate-buffered saline followed by the addition of low-serum medium (RPMI 1640 with 1% penicillin/streptomycin and 0.5% fetal bovine serum).\nLometrexol was added in amounts sufficient to achieve incubation concentrations of 0.004, 0.02, 0.1, 0.5 and 2.5 μg/ml. The cells were incubated in the low-serum medium with lometrexol for 24 hours. After the 24-hour incubation, the concentration of fetal bovine serum was increased to 10%, and 50 ng/ml EGF was added to the cells in the presence of lometrexol. The cells were incubated with these stimulants (fetal bovine serum and EGF) for 3 hours. […] The immunoprecipitated protein was separated by SDS-PAGE, and the amount of phosphorylated EGFR was determined by western blot analysis of the resulting gel using chemiluminescent detection. The blot was probed with an antibody that is specific for the activated, phosphorylated form of EGFR (Chemicon, Temecula, Calif.), and the resulting photographic film was analyzed by densitometry."}, "A549 cells": {"tested_on": "A549 cells", "test": "MTT cell proliferation assay, kinase inhibitor plus lometrexol, A549 cells", "assay_type": "cell-based", "conditions": "for IC50 in A549 cells in the presence of increasing concentrations of lometrexol: 48 hours incubation, MTT, IC50 calculated from the untreated cells, FIG. 1 and FIG. 2", "method": "A549 and MDA-MB-231 cells were obtained from the ATCC. Cells were propagated in 75 cm^2 flasks in RPMI 1640 medium with 10% fetal bovine serum, 1% penicillin/streptomycin, and 1% glutamine. To initiate the experiment, cells were plated into 96-well plates at 3000 cells/well with the top and bottom rows containing media only as a negative control. The cells were incubated at 37° C. for 15 hours to allow the cells to adhere. After 15 hours, freshly prepared solutions of lometrexol and the appropriate kinase inhibitor (AG1478 or indirubin-3′-monoxime) at the desired dose were added to the media in varying concentrations in a 5×8 matrix of concentrations. Each plate also contained wells that contained medium only and no added compound. The cells were then incubated for 48 hours with the compounds. The relative cell number was determined using the cell proliferation assay reagent MTT. This reagent is converted by mitochondrial dehydrogenases to a colored formazan product that is then quantified by spectrophotometric analysis. […] The relative effect of the compounds was determined by the percentage of the untreated control cells.\nThe IC50 value was calculated from the untreated cells. […]. […] The data are presented as % growth relative to cells treated with lometrexol alone. The total incubation time with the compounds was 48 hours."}}, "note": "Counter-ions that a name gives are not always drawn."}
{"compound": "COc1cccc2c1C(=O)c1c(O)c3c(c(O)c1C2=O)C[C@@](O)(C(=O)CO)C[C@@H]3O[C@H]1C[C@H](N)[C@H](O)[C@H](C)O1", "note": "[Doxorubicin HCl]", "values": [{"measurement": "storage time of reconstituted solution", "setting": "[1]; reconstituted with sterile water for injection or 0.9% sodium chloride", "result": "up to 24 hours"}, {"measurement": "stability of lyophilised powder", "setting": "[1]; stored at room temperature and away from direct light", "result": 2, "unit": "years"}]}
{"compound": "Nc1ccn([C@@H]2O[C@H](CO)[C@@H](O)C2(F)F)c(=O)n1", "note": "[Gemcitabine HCl]", "values": [{"measurement": "solubility in ethanol and polar organic solvents", "setting": "[2]; ethanol and polar organic solvents", "result": "insoluble"}, {"measurement": "solubility in methanol", "setting": "[2]; methanol", "result": "slightly soluble"}, {"measurement": "solubility in water", "setting": "[2]; water", "result": "soluble"}]}
{"compound": "Nc1nc2c(c(=O)[nH]1)C[C@@H](CCc1ccc(C(=O)N[C@@H](CCC(=O)O)C(=O)O)cc1)CN2", "note": "[Lometrexol sodium]", "values": [{"measurement": "time to use after reconstitution", "setting": "[3]", "result": "≤ 1", "unit": "h"}]}
{"compound": "Nc1nc2c(c(=O)[nH]1)CC(CCc1ccc(C(=O)N[C@@H](CCC(=O)O)C(=O)O)cc1)CN2", "note": "(stereo partly shown) [lometrexol, 5,10-dideazatetrahydrofolic acid]", "values": [{"measurement": "ATP concentration per million cells", "setting": "[4]", "result": "decreased"}, {"measurement": "lometrexol potentiation of kinase inhibitor growth inhibition", "setting": "MDA-MB-231 cells", "result": "no observed potentiation"}, {"measurement": "relative amount of phosphorylated-EGFR per mg protein in the cell lysate", "setting": "phosphorylated EGFR; lometrexol 0.004, 0.02 and 0.1 μg/ml", "result": "37-56 % of control"}, {"measurement": "relative phosphorylated-EGFR", "setting": "phosphorylated EGFR; lometrexol 0.5 and 2.5 μg/ml", "result": "≥ 3 % of the activated-control"}, {"measurement": "lometrexol potentiation of kinase inhibitor growth inhibition", "setting": "A549 cells; cell line sensitive to EGF stimulation", "result": "potentiation is observed"}]}
{"compound": "COc1cc2ncnc(Nc3cccc(Cl)c3)c2cc1OC", "note": "[tyrphostin AG1478, 4-(3-chloroanilino)-6,7-dimethoxyquinazoline]", "values": [{"measurement": "IC50 in A549 cells in the presence of increasing concentrations of lometrexol", "setting": "A549 cells", "result": "decrease in IC50"}]}
{"compound": "indirubin-3′-monoxime", "values": [{"measurement": "IC50 in A549 cells in the presence of increasing concentrations of lometrexol", "setting": "A549 cells", "result": "decrease in IC50"}]}
